In paper PMC12340956, “Tranylcypromine-Based LSD1 Inhibitors as Useful Agents to Reduce Viability of” (ACS Infectious Diseases, 2025):

Tests used:
[1] = tested on: adult worms; assay: Adult worm viability phenotypic assay, 72 h; settings: Schistosoma mansoni, read-out: IC50 (adult worm viability)
[2] = target: T1, human LSD1-CoREST complex (Homo sapiens, UniProt O60341); assay: ThermoFAD thermal stability assay; assay type: binding; settings: LSD1-CoREST thermal stability
T1 construct: made in house
Method: Compounds 14–22 were tested against the human LSD1-CoREST complex to determine their inhibitory activity. […] ThermoFAD assays were then performed to assess the impact of 14–22 on the thermal stability (ΔT m values, Table ) of the LSD1-CoREST complex. The most significant shifts in Tm values corresponded to the strongest binders. […] Compound 22 was not tested, considering its previous negative results.
Protein expression, thermal stability, and inhibition of human LSD1-CoREST were performed using established protocols. […] LSD1-CoREST (0.4 μM) was preincubated with the inhibitor at 25 °C for 10 min in the presence of 5% DMSO. The reaction was initiated by adding an equal volume of the substrate solution to the enzyme–inhibitor mixture, and resorufin fluorescence (excitation at 530–570 nm and emission at 580–590 nm) was detected with a Clariostar plate reader.

[3] = target: T1, human LSD1-CoREST complex; assay: HRP-coupled LSD1 inhibition assay; assay type: biochemical; settings: 10 min preincubation; for IC50: read-out: IC50 (hLSD1 direct inhibition)
Method: Protein expression, thermal stability, and inhibition of human LSD1-CoREST were performed using established protocols. […] The reaction was initiated by adding an equal volume of the substrate solution to the enzyme–inhibitor mixture, and resorufin fluorescence (excitation at 530–570 nm and emission at 580–590 nm) was detected with a Clariostar plate reader.

[4] = tested on: newly transformed schistosomula (NTS); assay: NTS viability phenotypic screening, 72 h; settings: for IC50: Schistosoma mansoni, read-out: IC50 (NTS viability)

| Compound | IC50 [1] [µM] | ΔTm [2] | IC50 [3] [µM] | Percentage of reduction of NTS viability, 72 h ([4]; 10 μM) [%] | Percentage of reduction of NTS viability, 72 h ([4]; 20 μM) [%] | IC50 [4] [µM] | IC50 (hLSD1 direct inhibition) [3] |
| --- | --- | --- | --- | --- | --- | --- | --- |
| C#Cc1cccc(C(=O)Nc2ccc(C3CC3N)cc2)c1.Cl (stereo not shown) [Compound 16, N-(4-(2-Aminocyclopropyl)phenyl)-3-ethynylbenzamide Hydrochloride] | > 20 | +10 °C | 0.07 ± 0.02 | 31.2 ± 6.3 | 77.8 ± 2.1 | > 10 | – |
| Cl.NC1CC1c1ccc(NC(=O)c2ccc(C#Cc3ccccc3)cc2)cc1 (stereo not shown) [Compound 20, N-(4-(2-Aminocyclopropyl)phenyl)-4-(phenylethynyl)benzamide Hydrochloride] | > 20 | +8 °C | 4.02 ± 0.41 | 29.2 ± 0.0 | 77.8 ± 2.1 | > 10 | single-digit μM inhibition |
